Measurements published in ChEMBL document CHEMBL5465560, “Selectivity Literature for EUbOPEN Chemogenomic Library” (2024).

Experiments:
[1] = biological target: SRSF protein kinase 3 (Homo sapiens) (UniProt Q9UPE1); assay: Selectivity interaction (KinomeScan (DiscoverX)) EUB0000045b SRPK3
[2] = biological target: T1, Aurora kinase C (Homo sapiens) (UniProt Q9UQB9); assay: Selectivity interaction (KinomeScan (DiscoverX)) EUB0001079a AURKC; details: at 1 µM
T1 sequence (whole entry): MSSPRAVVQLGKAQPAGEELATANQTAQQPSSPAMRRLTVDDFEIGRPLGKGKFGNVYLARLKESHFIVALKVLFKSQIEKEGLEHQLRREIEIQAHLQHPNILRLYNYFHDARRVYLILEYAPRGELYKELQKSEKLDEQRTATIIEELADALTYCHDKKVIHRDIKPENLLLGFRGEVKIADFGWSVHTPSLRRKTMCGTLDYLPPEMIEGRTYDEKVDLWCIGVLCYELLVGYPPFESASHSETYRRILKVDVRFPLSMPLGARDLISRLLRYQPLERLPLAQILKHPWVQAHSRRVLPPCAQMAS

[3] = biological target: T2, Dual specificity mitogen-activated protein kinase kinase 7 (Homo sapiens) (UniProt O14733); details: at 10 µM
T2 sequence (whole entry): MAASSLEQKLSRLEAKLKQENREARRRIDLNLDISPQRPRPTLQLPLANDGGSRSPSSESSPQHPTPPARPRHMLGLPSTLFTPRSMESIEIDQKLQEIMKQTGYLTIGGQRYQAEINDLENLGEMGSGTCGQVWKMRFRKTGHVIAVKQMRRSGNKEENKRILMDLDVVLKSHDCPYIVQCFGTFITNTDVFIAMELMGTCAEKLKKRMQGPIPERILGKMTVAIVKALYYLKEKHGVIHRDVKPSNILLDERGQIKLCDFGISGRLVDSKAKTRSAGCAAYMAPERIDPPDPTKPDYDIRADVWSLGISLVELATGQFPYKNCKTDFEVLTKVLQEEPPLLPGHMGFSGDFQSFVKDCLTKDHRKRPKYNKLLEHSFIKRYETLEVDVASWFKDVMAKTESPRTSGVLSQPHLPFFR

[4] = biological target: T3, Serine/threonine-protein kinase ULK3 (Homo sapiens) (UniProt Q6PHR2); assay: Selectivity interaction (KinomeScan (DiscoverX)) EUB0001550a ULK3; details: at 1 µM
T3 sequence (whole entry): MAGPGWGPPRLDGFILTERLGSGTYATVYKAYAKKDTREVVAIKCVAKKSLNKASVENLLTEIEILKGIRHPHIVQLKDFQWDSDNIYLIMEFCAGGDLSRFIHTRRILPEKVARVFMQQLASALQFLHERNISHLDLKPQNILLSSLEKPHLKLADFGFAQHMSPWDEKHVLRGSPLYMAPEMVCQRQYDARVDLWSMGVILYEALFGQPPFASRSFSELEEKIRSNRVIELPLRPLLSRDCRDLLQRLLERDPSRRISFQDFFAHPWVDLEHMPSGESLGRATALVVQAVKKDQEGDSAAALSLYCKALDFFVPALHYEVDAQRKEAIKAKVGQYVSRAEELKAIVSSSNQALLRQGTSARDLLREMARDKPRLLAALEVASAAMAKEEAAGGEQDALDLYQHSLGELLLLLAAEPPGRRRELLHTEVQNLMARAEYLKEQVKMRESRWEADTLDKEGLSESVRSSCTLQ

[5] = biological target: Fibroblast growth factor receptor 2 (Homo sapiens) (UniProt P21802); assay: Selectivity interaction (KinaseProfiler screening (Millipore)) EUB0000601a FGFR2; details: at 3 µM
[6] = biological target: Phosphatidylinositol 4,5-bisphosphate 3-kinase catalytic subunit gamma isoform (Homo sapiens) (UniProt P48736); assay: Selectivity interaction (Kinase panel (literature)) EUB0001199aCl PIK3CG; details: at 1 µM
Sequence of Phosphatidylinositol 4,5-bisphosphate 3-kinase catalytic subunit gamma isoform (Homo sapiens) (P48736 whole entry, looked up, canonical isoform): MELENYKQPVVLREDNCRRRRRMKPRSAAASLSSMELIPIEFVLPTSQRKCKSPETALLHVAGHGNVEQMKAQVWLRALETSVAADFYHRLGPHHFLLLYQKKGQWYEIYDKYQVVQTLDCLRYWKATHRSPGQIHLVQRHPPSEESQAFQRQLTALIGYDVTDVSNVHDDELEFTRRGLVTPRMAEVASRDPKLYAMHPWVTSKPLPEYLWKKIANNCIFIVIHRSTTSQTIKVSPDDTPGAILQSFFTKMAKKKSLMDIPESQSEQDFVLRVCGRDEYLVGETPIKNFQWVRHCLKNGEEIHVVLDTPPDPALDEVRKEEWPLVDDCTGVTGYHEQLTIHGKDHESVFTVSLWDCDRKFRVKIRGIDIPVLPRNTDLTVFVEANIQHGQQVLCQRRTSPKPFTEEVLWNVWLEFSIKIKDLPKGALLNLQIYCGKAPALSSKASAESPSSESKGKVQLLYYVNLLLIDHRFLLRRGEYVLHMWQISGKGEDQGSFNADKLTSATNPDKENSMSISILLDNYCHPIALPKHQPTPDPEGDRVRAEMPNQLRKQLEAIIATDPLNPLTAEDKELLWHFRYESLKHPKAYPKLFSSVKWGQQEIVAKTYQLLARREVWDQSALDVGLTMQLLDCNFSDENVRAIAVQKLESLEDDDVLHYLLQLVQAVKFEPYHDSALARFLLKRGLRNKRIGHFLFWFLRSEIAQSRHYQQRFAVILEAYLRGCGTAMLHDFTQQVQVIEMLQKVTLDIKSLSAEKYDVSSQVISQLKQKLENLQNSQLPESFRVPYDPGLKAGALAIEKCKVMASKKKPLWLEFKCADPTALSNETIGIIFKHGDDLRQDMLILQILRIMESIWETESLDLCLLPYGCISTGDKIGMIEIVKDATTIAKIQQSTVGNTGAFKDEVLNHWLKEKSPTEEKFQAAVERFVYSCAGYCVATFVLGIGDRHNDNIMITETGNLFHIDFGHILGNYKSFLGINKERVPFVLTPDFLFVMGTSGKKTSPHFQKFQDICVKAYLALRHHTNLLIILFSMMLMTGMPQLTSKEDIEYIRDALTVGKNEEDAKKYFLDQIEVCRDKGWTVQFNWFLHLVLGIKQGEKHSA

[7] = biological target: T4, Mitogen-activated protein kinase 13 (Homo sapiens) (UniProt O15264); assay: Selectivity interaction (KinomeScan (DiscoverX)) EUB0000607a MAPK13; details: at 10 µM
T4 sequence (whole entry): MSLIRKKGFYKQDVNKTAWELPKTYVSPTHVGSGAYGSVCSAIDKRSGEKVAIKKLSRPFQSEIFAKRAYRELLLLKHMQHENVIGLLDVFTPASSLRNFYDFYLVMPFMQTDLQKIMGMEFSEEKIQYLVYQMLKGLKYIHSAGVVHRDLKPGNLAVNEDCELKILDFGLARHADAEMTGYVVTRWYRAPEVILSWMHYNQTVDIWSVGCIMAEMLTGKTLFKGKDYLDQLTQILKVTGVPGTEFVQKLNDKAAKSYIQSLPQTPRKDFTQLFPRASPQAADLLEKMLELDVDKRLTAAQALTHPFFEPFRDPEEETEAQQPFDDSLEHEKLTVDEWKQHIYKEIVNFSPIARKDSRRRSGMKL

[8] = biological target: Protein-tyrosine kinase 2-beta (Homo sapiens) (UniProt Q14289); assay: Selectivity interaction (SelectScreen profiling (Invitrogen)) EUB0000607a PTK2B; details: at 2 µM
Sequence of Protein-tyrosine kinase 2-beta (Homo sapiens) (Q14289 whole entry, looked up): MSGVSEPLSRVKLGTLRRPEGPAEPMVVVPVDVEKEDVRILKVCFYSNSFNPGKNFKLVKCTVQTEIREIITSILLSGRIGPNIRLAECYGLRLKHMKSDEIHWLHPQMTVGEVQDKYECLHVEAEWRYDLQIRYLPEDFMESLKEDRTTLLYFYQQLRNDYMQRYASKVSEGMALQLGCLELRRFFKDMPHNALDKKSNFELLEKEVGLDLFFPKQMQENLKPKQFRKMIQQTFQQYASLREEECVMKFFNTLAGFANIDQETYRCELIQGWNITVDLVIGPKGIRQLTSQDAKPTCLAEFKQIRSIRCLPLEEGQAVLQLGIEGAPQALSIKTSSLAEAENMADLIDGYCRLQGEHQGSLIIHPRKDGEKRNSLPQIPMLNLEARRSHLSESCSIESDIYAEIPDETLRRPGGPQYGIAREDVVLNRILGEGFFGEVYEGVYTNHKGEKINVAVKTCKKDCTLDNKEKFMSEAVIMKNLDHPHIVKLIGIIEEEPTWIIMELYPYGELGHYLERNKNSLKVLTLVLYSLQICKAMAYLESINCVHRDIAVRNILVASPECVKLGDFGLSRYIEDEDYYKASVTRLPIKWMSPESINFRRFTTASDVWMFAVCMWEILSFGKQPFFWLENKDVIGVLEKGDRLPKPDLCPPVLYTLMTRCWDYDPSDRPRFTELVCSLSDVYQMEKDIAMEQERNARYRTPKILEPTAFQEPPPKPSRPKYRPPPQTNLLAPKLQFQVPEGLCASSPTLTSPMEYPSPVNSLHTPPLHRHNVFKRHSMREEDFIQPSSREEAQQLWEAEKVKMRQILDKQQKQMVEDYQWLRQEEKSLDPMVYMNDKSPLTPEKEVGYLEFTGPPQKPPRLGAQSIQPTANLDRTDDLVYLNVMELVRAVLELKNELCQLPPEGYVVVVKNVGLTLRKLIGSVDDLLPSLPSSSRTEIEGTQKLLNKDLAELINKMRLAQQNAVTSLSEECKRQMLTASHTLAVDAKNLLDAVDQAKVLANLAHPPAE

[9] = biological target: Serine/threonine-protein kinase 16 (Homo sapiens, UniProt O75716); assay: Selectivity interaction (ActivX KiNativ screen (kinase selectivity in THP-1 cell lysates)) EUB0000639a STK16; format: subcellular; details: lysate, at 0.01 µM
Sequence of Serine/threonine-protein kinase 16 (O75716 whole entry): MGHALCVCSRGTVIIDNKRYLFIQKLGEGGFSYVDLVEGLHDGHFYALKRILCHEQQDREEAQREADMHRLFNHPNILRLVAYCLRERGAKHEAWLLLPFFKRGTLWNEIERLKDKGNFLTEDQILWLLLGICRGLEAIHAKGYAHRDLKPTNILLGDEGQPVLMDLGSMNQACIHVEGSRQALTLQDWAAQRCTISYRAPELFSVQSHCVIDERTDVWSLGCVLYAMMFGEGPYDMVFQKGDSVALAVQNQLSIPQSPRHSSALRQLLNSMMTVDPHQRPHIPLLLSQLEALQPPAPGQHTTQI

[10] = biological target: Ribosomal protein S6 kinase alpha-1 (Homo sapiens, UniProt Q15418); assay: Selectivity interaction (KinomeScan (DiscoverX)) EUB0000655a RPS6KA1; details: at 10 µM
Sequence of Ribosomal protein S6 kinase alpha-1 (Q15418 whole entry): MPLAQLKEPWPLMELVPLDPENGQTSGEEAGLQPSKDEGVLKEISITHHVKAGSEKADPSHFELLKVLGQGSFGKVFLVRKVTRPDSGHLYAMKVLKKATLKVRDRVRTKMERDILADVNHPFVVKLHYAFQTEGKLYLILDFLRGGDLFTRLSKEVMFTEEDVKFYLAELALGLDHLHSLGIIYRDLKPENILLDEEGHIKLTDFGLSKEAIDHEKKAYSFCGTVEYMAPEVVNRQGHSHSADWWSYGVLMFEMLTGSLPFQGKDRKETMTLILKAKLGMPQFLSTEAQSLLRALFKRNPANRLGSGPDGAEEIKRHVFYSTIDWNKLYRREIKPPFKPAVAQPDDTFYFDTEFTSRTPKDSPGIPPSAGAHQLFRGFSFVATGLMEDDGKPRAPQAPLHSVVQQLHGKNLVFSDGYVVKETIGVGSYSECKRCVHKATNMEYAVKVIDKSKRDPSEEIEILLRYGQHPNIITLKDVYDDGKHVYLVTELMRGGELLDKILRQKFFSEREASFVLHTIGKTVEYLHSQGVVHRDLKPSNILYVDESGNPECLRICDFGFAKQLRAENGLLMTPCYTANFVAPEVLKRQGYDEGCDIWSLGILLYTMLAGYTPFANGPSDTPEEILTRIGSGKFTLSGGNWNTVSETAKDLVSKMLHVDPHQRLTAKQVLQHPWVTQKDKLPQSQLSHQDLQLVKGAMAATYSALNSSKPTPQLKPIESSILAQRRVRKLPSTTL

[11] = biological target: Serine/threonine-protein kinase PAK 6 (Homo sapiens) (UniProt Q9NQU5); assay: Selectivity interaction (KinomeScan (DiscoverX)) EUB0000655a PAK6; details: at 10 µM
Sequence of Serine/threonine-protein kinase PAK 6 (Homo sapiens) (Q9NQU5 whole entry, looked up): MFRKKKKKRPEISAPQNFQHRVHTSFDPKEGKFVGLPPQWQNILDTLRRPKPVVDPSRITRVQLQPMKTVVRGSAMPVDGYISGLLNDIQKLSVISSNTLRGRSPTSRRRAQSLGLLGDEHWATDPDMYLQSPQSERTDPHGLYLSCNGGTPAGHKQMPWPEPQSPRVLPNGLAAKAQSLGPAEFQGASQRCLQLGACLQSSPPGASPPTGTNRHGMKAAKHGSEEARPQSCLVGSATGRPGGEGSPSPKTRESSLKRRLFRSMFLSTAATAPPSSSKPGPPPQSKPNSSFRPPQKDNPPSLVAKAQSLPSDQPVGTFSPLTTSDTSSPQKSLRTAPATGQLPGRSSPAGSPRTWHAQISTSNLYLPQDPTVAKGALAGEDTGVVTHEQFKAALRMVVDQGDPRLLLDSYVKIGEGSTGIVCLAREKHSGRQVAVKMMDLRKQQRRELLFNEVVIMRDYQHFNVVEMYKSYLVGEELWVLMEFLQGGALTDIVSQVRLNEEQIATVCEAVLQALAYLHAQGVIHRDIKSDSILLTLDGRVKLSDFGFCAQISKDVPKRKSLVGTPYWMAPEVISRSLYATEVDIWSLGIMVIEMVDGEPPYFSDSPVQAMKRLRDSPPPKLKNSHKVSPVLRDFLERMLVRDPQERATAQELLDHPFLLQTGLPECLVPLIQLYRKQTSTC

[12] = biological target: T5, Cyclin-dependent kinase-like 2 (Homo sapiens) (UniProt Q92772); assay: Selectivity interaction (Ambit KINOMEscan and KiNATiv profiling in Jurkat cells) EUB0000090b CDKL2; format: cell-based; details: at 1 µM
T5 sequence (whole entry): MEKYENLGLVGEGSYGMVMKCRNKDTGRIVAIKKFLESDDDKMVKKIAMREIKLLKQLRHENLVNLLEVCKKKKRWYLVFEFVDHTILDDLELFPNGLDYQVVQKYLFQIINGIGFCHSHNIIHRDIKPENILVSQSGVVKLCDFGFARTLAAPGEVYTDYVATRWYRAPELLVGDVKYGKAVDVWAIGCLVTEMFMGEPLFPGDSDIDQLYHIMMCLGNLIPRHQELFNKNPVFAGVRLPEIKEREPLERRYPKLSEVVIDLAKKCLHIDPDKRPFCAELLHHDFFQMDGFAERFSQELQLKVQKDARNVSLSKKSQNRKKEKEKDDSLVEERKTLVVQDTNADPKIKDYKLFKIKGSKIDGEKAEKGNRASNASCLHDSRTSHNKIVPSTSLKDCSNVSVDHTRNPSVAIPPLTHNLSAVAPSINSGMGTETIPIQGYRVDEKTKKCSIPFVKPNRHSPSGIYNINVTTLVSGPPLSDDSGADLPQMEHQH

Sequence of SRSF protein kinase 3 (Homo sapiens) (Q9UPE1 whole entry): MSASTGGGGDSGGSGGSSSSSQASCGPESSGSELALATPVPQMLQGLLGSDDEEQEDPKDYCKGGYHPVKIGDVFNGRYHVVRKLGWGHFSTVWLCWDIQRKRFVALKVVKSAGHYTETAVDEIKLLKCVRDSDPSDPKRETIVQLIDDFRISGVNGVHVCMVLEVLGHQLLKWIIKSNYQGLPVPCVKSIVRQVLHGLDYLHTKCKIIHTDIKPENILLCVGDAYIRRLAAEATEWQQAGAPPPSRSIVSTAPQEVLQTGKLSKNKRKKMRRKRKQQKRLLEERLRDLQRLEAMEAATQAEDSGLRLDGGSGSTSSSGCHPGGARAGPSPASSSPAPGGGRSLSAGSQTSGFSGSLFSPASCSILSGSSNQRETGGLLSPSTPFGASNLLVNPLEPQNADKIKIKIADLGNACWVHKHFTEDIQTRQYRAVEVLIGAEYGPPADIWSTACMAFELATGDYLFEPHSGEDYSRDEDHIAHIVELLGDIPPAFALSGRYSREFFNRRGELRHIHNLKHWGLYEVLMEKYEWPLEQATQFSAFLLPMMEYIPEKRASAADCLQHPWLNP

C=CC(=O)Nc1cc(-n2c(=O)ccc3cnc4ccc(-c5ccc(NS(C)(=O)=O)cc5)cc4c32)ccc1C
% of control ([1]; at 1 µM): 100% | % of control ([1]; at 10 µM): 67%

Nc1cnc(N2CCc3cc(S(=O)(=O)Nc4c(F)cc(Cl)cc4F)cc(N4CCCC4=O)c32)nc1 [TP-020n]
% of control [2]: 100%

Cc1cc([C@@H](C)Nc2ccccc2C(=O)O)c2nc(N3CCOCC3)cc(=O)n2c1 [AZD-6482]
% of control [3]: 90%

CN(C)CC#Cc1ccc2[nH]c3c(c2c1)-c1nc(N)ncc1CCC3
% of control [4]: 11%

CCc1cc(Nc2nccc(-c3c(-c4ccc(OC)c(C(=O)Nc5c(F)cccc5F)c4)nc4ccccn34)n2)c(OC)cc1N1CCC(N2CCN(S(C)(=O)=O)CC2)CC1
% of inhibition [5]: 50%

CN1Cc2nccc(-c3cn(C)nc3-c3ccc(F)cc3)c2C1=O
% of inhibition [6]: -10%

CNC(=O)Nc1ccc(-c2nc(N3CC4CCC(C3)O4)c3cnn(C4CCC5(CC4)OCCO5)c3n2)cc1
% of control [7]: 16% | % of inhibition [8]: -3%

CC[C@@H]1[C@H](F)C(=O)N[C@@H]1COc1nccc2cc(C(N)=O)c(OC)cc12 [ZIMLOVISERTIB]
% of inhibition [9]: 21.2%

CN(C)CCOc1ccc(-c2nc(-c3ccncc3)c(-c3ccc4c(c3)CC/C4=N\O)[nH]2)cc1
% of control [10]: 91% | % of control [11]: 100%

CN(C)C/C=C/C(=O)Nc1ccc(C(=O)N2CCCC(Nc3ncc(Cl)c(-c4c[nH]c5ccccc45)n3)C2)cc1 (stereo not drawn)
% of control [12]: 75%
